These results are taken from article PMC8667888, “Discovery of a novel Aurora B inhibitor GSK650394 with potent anticancer and anti-aspergillus fumigatus dual efficacies in vitro” (Journal of Enzyme Inhibition and Medicinal Chemistry, 2021).

The target of experiment [1] is T1, human Aurora B (Homo sapiens, UniProt Q96GD4).
T1 construct: the Hs.Aurora B kinase domain (aa.70–344) was co-expressed in E. coli cells; made in house; host or cells: E. coli BL21 (DE3) pLysS
Description: Luciferase-coupled ATP assay (ATPase activity), human Aurora B. The experiment is classed as biochemical. Here is the method:
(§1) The pGEX-dual expression plasmid containing human (Hs.) Aurora B kinase domain (aa.54–344) and a C-terminal fragment of Hs.INCENP (aa.835–904) was obtained from Prof. Hongtao Yu (Department of Life Science, Westlake University). The cDNAs of Af.Aurora B kinase domain (aa.1–396, GenBank accession no. EDP54304.1) and the C-terminal fragment of Af.INCENP (aa.1200–1297, GenBank accession no. XP_033417438.1) was synthesised in Union Biotech (China). Protein expression and purification were performed as previously described. Briefly, The recombinant proteins of Aurora B and INCENP were coexpressed in BL21 (DE3) pLysS competent cells. For protein purification, cells co-expressing GST-INCENP and Aurora B proteins were resuspended with lysis buffer containing 50 mM Tris-HCl, pH 8.0, 200 mM NaCl, 5% glycerol, and 0.05% Triton X-100. Cells were disrupted by French Pressure (Union Biotech, China) and the supernatants were collected after centrifugation. The Aurora B/Hs.INCENP complex proteins were pooled through Glutathione columns (Smart-Lifesciences, China). […]
(§2) A luciferase-based luminescence assay was utilised to determine the ATPase activity of Aurora B according to the manufacture’s protocols (Promega). […] At the end of the reaction, the Kinase-Glo reagent (Promega) was added and the ATPase activity was evaluated by luminescence measurement on the microplate reader (SpectraMax-L, Molecular Devices).

For experiment [2], the target named is T2, Af.Aurora B (Aspergillus fumigatus, UniProt B0XW52). Description: Luciferase-coupled ATP assay (ATPase activity), Af.Aurora B. The experiment is classed as biochemical. To be noted: IC50, inhibition of ATPase activity of Af.Aurora B, recombinant Af.Aurora B, n = 3. Here is the method:
as §1, §2

The next experiment concerns the target T3, human Haspin (Homo sapiens, UniProt Q8TF76).
T3 sequence (Q8TF76 1-798): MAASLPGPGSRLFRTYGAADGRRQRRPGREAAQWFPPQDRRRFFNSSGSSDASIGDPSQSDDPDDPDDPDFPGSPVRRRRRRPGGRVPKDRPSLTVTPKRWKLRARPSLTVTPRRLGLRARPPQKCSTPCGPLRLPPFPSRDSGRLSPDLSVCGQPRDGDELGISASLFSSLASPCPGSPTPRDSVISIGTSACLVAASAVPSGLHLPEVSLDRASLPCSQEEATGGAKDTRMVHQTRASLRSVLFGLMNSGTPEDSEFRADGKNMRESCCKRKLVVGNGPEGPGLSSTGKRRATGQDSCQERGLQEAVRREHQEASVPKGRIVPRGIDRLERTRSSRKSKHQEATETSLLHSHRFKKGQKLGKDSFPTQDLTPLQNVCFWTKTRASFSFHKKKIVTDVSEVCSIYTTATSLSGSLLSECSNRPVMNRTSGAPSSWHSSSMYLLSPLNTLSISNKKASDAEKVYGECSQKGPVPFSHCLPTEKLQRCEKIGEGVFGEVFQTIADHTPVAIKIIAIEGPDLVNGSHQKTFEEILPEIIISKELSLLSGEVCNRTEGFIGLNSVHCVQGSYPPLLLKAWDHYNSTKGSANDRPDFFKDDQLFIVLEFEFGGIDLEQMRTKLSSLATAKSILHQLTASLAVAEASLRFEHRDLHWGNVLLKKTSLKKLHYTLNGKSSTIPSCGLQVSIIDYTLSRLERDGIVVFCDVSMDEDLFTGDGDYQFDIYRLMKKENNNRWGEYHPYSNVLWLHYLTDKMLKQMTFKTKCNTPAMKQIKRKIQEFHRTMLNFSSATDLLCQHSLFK
The experiment in a line: Luciferase-coupled ATP assay (ATPase activity), human Haspin. The class given is biochemical. To be noted: read-out: IC50, inhibition of human Haspin ATPase activity. On the procedure: (§3) A luciferase-based luminescence assay was utilised to determine the ATPase activity of Aurora B according to the manufacture’s protocols (Promega). Briefly, the Aurora B protein was incubated with 10 µM ATP in the absence or presence of various drugs at 30 °C, in a kinase buffer containing 50 mM Tris-HCl, pH7.4, 100 mM NaCl, 10 mM MgCl2, 1 mM DTT, and 0.1% Tween20. At the end of the reaction, the Kinase-Glo reagent (Promega) was added and the ATPase activity was evaluated by luminescence measurement on the microplate reader (SpectraMax-L, Molecular Devices).
Fig. S2 Effect of GSK650394 on human Haspin. (a) Comparison of ATPase activity between Aurora B and Haspin. The luminescence of ATP only control was normalized to 1.0. The values were normalized to ATP-only control set as 100% inhibition. Values are means ± S.E., n = 3. (b) Inhibition of human Haspin ATPase […]
(1 picture or pasted object on this page, not shown here)

Another experiment concerns the target T4, V91A Aurora B (Homo sapiens, UniProt Q96GD4, V91A).
T4 construct: the Hs.Aurora B kinase domain (aa.70–344) was co-expressed in E. coli cells; made in house; host or cells: E. coli BL21 (DE3) pLysS
The experiment in a line: Luciferase-coupled ATP assay, V91A mutant Aurora B. The class given is biochemical. On the procedure:
as §3

The next experiment has as its system HepG2. Description: MTT cell proliferation assay, HepG2. The experiment is classed as cell-based. Particulars: Homo sapiens, read-out: IC50, inhibition of proliferation. Here is the method:
(§4) MTT assay was conducted for cell proliferation analysis. Cells were cultured in 96-well plates (6 × 10^3/well) and treated with drugs or left untreated for 24–72 h. After treatment, cells were incubated with MTT solution (0.5 mg/mL) for 4 h at 37 °C. Then, the reactions were terminated by DMSO and the optical densities were measured by absorbance at 570 nm.
On the technique in general: Formazan colour is commonly taken as a measure of viable cells.

In the next experiment the test system is LO2. Description: MTT cell proliferation assay, LO2. The class given is cell-based. To be noted: Homo sapiens, L02, read-out: IC50, inhibition of proliferation. On the procedure:
as §4

A further experiment concerns MCF-7. The experiment in a line: MTT cell proliferation assay, MCF-7. The class given is cell-based. Particulars: Homo sapiens, MCF7; MCF-7, MTT; read-out: IC50, inhibition of proliferation. On the procedure: as §4
A further experiment deals with HELF. The experiment in a line: MTT cell proliferation assay, HELF. The experiment is classed as cell-based. Particulars: read-out: IC50, inhibition of proliferation. On the procedure: as §4
In another experiment the test system is Hela. Description: MTT cell proliferation assay, Hela. The class given is cell-based. Particulars: Homo sapiens, read-out: IC50, inhibition of proliferation. Here is the method:
as §4

The test system of experiment [3] is endogenous Aurora B in HepG2 cells. Description: Histone H3 Ser10 phosphorylation in HepG2 cells (immunoblot). The class given is cell-based, human. Particulars: HepG2, 9 h after release from thymidine arrest. Here is the method:
(§5) HepG2 and HeLa cells were cultured in DMEM and RPMI-1640, respectively, supplemented with 10% foetal bovine serum in 37 °C and 5% CO2. G1/S synchronisation was carried out by treating cells with 2 mM of thymidine for 19 h. […] Subsequently, cells were harvested and subjected to immunoblotting or flow cytometric analysis. For flow cytometry assay, cells were trypsinized, washed once with PBS, and then fixed with cold 75% ethanol. Fixed cells were washed with PBS and resuspended in PBS containing the propidium iodide (Sigma) DNA staining solution, for 30 min at 37 °C. Then, samples were analysed using the Cytoflex cytometer (Beckman Coulter, USA) and the data were processed with the Flow Jo software.
(In western blotting, separated proteins are transferred to a membrane and probed.)

Experiment [4] deals with endogenous Aurora B in HeLa cells. The experiment in a line: Histone H3 Ser10 phosphorylation in HeLa cells (immunoblot). The class given is cell-based, human. To be noted: 9 h after release from thymidine arrest, vs control cells. Here is the method:
as §5

The next experiment has as its system Aspergillus fumigatus. Description: Anti-Aspergillus fumigatus plate assay. The class given is cell-based. To be noted: 37 °C, 30 h. On the procedure:
A plate assay was carried out to assess the growth rate of Aspergillus fumigatus. A specified amount of Aspergillus fumigatus spores were inoculated on the centre of the plate containing solid glucose minimal medium in the absence or presence of drugs. After further incubation for 30 h at 37 °C, the growth rate was determined by measuring the diameter of Aspergillus fumigatus clonies on each plate.

In experiment [5] the target is T1, human Aurora B. Description: In vitro kinase assay (histone H3 Ser10 phosphorylation), human Aurora B. Particulars: Western blot. The experiment is classed as biochemical. On the procedure:
(§6) The in vitro kinase assay was performed as previously described. The kinase activity of recombinant Aurora B was assayed by incubating 200 nM purified Aurora B/INCENP protein with 100 µM ATP and 6 µg bulk histones (from calf thymus, Sigma-Aldrich) in kinase buffer containing 50 mM Tris-HCl, pH7.4, 100 mM NaCl, 10 mM MgCl2, 1 mM DTT and 0.1% Tween20. After 15-min incubation at 30 °C, the reaction was quenched by SDS-sample buffer, separated on SDS-PAGE, and immunoblotted with anti-histone H3 and anti-histone H3 phospho-Ser10 (pS10) antibodies. The blots were scanned and quantified with the ChemiDoc™ Touch imaging system (Bio-rad). To investigate the compounds’ inhibitory effect, Aurora B was pre-incubated with DMSO or various concentrations of drugs for 15 min at room temperature and the reactions were then initialised by the addition of ATP and histone substrates.

In experiment [6] the target is T2, Af.Aurora B. Description: In vitro kinase assay (histone H3 phosphorylation), Af.Aurora B. The class given is biochemical. To be noted: Western blot. On the procedure: as §6
In experiment [7] the test system is acute myelogenous leukaemia (AML). On the set-up: method as in PMID 23763917. Particulars: patients with AML, combined with low-dose cytosine arabinoside (LDAC); cited from earlier work.

Values joined by “and” are separate entries in the source; they are usually repeats but may differ in a detail not shown here. Equal values may be shown once.

T4 sequence (Q96GD4 70-344 V91A): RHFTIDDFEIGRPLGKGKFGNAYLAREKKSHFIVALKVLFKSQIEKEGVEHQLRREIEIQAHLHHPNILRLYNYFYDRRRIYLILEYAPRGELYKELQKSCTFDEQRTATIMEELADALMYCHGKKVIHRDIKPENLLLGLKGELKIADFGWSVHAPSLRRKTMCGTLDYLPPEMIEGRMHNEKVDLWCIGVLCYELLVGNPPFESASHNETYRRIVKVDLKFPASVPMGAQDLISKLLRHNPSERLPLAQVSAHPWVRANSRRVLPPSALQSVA
T4 sequence (Q9NQS7 835-904 partner limits assumed): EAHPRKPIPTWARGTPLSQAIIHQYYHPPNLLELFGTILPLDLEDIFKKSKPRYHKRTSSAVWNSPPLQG
T1 sequence (Q96GD4 70-344): as the sequence (Q96GD4 70-344 V91A) above, with A22V counted along it
T1 sequence (Q9NQS7 835-904 partner limits assumed): as the sequence (Q9NQS7 835-904 partner limits assumed) above

Regarding `O=C(O)c1ccc(-c2c[nH]c3ncc(-c4ccccc4)cc23)cc1C1CCCC1` [GSK650394], the IC50 against human Aurora B [1] is 5680 nM; at Af.Aurora B [2] it was 1290 nM and 1300 nM; at human Haspin, 41400 nM; at V91A Aurora B (Val91 mutant, read-out: IC50, inhibition of V91A Aurora B), more than 100000 nM; with HepG2 it was 1530 ± 1880 nM; with LO2, 1750 ± 1280 nM. Also, the IC50 stood at 1420 ± 1190 nM with MCF-7, 6140 ± 1330 nM with HELF and 3570 ± 1380 nM in the experiment on Hela. The “reduction of inhibitory effect by mutation of Val91” value at V91A Aurora B (V91A vs wild type) was more than 20 fold. Further, the “concentration at which H3 phosphorylation is abolished” value in experiment [3] is 2.5 µM. Also, the “effect on histone H3 phosphorylation” value in experiment [3] (vs control cells) and in [4] was “significant attenuation of histone H3 phosphorylation” each time. The “growth rate of Aspergillus fumigatus (diameter of colonies)” value with Aspergillus fumigatus was “markedly inhibited in a dose-dependent manner”. Moreover, on human Aurora B [5], the “effect on phosphorylation of histone H3 Ser10 by Aurora B” value is given as “diminish the phosphorylation of histone H3 Ser10”. Moreover, the “effect on kinase activity of Af. Aurora B” value at Af.Aurora B [6] is listed as “effectively inhibits”.
Consider `CCN(CCCOc1ccc2c(Nc3cc(CC(=O)Nc4cccc(F)c4)n[nH]3)ncnc2c1)CCOP(=O)(O)O` [barasertib], for which the overall response rate in [7] is recorded as 45%.
